Patent publication EP1325735A2, “Use of L-arginine derivatives as photo-protecting agents and enhancing melanic response in cosmetic compositions” (EXSYMOL S.A.M., priority 2002, dated 2003)
Square brackets hold non-standard residues; d marks the D form. Peptide text beside a SMILES is read from it. ξ: configuration not given here. ξM = CSCCC(N)C(=O)O

Columns and labels:
[1] = Hydroxyl radical OH• scavenging, deoxyribose protection test (Halliwell method); conditions: rate constant of S on OH•; mean (± SD) of 3 independent experiments
Source text: Le test, réalisé selon la méthode décrite par B. Halliwell et coll. […] Le pouvoir protecteur est déduit de la comparaison des cinétiques de réaction, exprimées par une constante de vitesse de S sur OH• (piégeage de OH•).
Les constantes de vitesse correspondent à la valeur moyenne (± D.S.) calculée à partir de 3 expériences indépendantes

[2] = test system: co-culture in vitro de mélanocytes et de kératinocytes; assay: In vitro melanocyte/keratinocyte co-culture model of the "mélano-épidermique" unit: melanic response after UV; type: cell-based; parameters: unit not given here; conditions: for réponse mélanique: co-culture + MdC "ARG-free" irradiée par UVB: ARG-free medium (insufficient physiological arginine); for réponse mélanique: co-culture + MdC "ARG-free" irradiée par UVB / réponse mélanique: co-culture + MdC "ARG = 84mg/L" irradiée par UVB: UVB irradiated; for réponse mélanique: co-culture + MdC "ARG = 84mg/L" irradiée par UVB / réponse mélanique: co-culture + MdC "ARG = 84mg/L" sans irradiation: standard medium with supra-physiological arginine; for réponse mélanique: co-culture + MdC "ARG = 84mg/L" sans irradiation: no irradiation
Source text: Test 2 : démonstration de l'effet des dérivés d'arginine sur l'unité "mélano-épidermique" et la réponse mélanique
Nous avons mis au point un modèle expérimental reproduisant l'unité "mélano-épidermique", et qui permet de mettre en évidence les effets d'un apport exogène de dérivés d'arginine sur la réponse mélanique à la suite de rayonnements U.V. (effet direct sur les mélanocytes et indirect via la "communication cellulaire" entre kératinocytes et mélanocytes). Il s'agit d'un modèle de co-culture in vitro de mélanocytes et de kératinocytes (voir représentation schématique du modèle), possédant un milieu de culture (MdC) particulier. [drawing]
Le fond poreux de la chambre supérieure permet le passage, d'un compartiment à l'autre, des facteurs endogènes sécrétés par les cellules (NO) et la substance (S).

## N=C(N)NCCC[C@H](N)C(=O)O [L-arginine]
[1]
  constante de vitesse de piégeage: 1,5 (±0,2)x10^9 M^-1.S^-1

## N[C@@H](Cc1c[nH]cn1)C(=O)O [L-histidine, reference compound]
[1]
  constante de vitesse de piégeage: 2,5 (±0,2)x10^9 M^-1.S^-1

## CCOC(=O)[C@H](CCCNC(=N)N)NC(=O)C(CCSC)NC(C)=O (stereo partly drawn) [NAc-(D,L)-MET-L-ARG-OEt, N-acetyl-(D ou L)methionyl-L-arginine ethyl ester] (Ac-[ξM]-Arg-OEt)
[1]
  constante de vitesse de piégeage: 0,7 (±0,2)x10^10 M^-1.S^-1

## CCOC(=O)[C@@H](NC(=O)[C@H](CCCNC(=N)N)NC(C)=O)[C@@H](C)CC [NAc-L-ARG-L-ILE-OEt, N-acetyl-L-arginyl-(D ou L)-isoleucine ethyl ester] (Ac-Arg-Ile-OEt)
[1]
  constante de vitesse de piégeage: 6,1 (±0,4)x10^9 M^-1.S^-1

## CCOC(=O)[C@H](CCCNC(=N)N)NC(C)=O [NAc-L-ARG-OEt, N-acetyl-L-arginine ethyl ester]
[2]; substance 0,12 mM
  réponse mélanique: co-culture + MdC "ARG-free" irradiée par UVB: 30,7
  réponse mélanique: co-culture + MdC "ARG = 84mg/L" irradiée par UVB: 39,5
  réponse mélanique: co-culture + MdC "ARG = 84mg/L" sans irradiation: 23,1
[2]; substance 0,24 mM
  réponse mélanique: co-culture + MdC "ARG-free" irradiée par UVB: 37,5
  réponse mélanique: co-culture + MdC "ARG = 84mg/L" irradiée par UVB: 42,6
  réponse mélanique: co-culture + MdC "ARG = 84mg/L" sans irradiation: 20,9
[2]; substance 0,48 mM
  réponse mélanique: co-culture + MdC "ARG-free" irradiée par UVB: 43,8
  réponse mélanique: co-culture + MdC "ARG = 84mg/L" irradiée par UVB: 38,4
  réponse mélanique: co-culture + MdC "ARG = 84mg/L" sans irradiation: 24,4
[1]
  constante de vitesse de piégeage: 5,2 (±0,2)x10^9 M^-1.S^-1

## CCOC(=O)[C@H](CCCNC(=N)N)NC(=O)[C@H](Cc1c[nH]cn1)NC(C)=O [NAc-L-HIS-L-ARG-OEt, N-acetyl-(D ou L)-histidyl-L-arginine ethyl ester] (Ac-His-Arg-OEt)
[2]; substance 0,12 mM
  réponse mélanique: co-culture + MdC "ARG-free" irradiée par UVB: 38,8
  réponse mélanique: co-culture + MdC "ARG = 84mg/L" irradiée par UVB: 41,6
  réponse mélanique: co-culture + MdC "ARG = 84mg/L" sans irradiation: 22,7
[2]; substance 0,24 mM
  réponse mélanique: co-culture + MdC "ARG-free" irradiée par UVB: 41,0
  réponse mélanique: co-culture + MdC "ARG = 84mg/L" irradiée par UVB: 36,2
  réponse mélanique: co-culture + MdC "ARG = 84mg/L" sans irradiation: 22,5
[2]; substance 0,48 mM
  réponse mélanique: co-culture + MdC "ARG-free" irradiée par UVB: 42,5
  réponse mélanique: co-culture + MdC "ARG = 84mg/L" irradiée par UVB: 40,7
  réponse mélanique: co-culture + MdC "ARG = 84mg/L" sans irradiation: 18,8
[1]
  constante de vitesse de piégeage: 9,0 (±0,2)x10^9 M^-1.S^-1

## CCOC(=O)[C@H](CCCNC(=N)N)NC(=O)[C@H](Cc1ccc(O)cc1)NC(C)=O [NAc-L-TYR-L-ARG-OEt, N-acetyl-L-tyrosyl-L-arginine ethyl ester]
[1]
  constante de vitesse de piégeage: 8,1 (±0,3)x10^9 M^-1.S^-1
